Reference: a compilation of properties of binary mixtures (doi:10.1016/j.jct.2016.03.014)

Test: xn = mol fraction of the nth substance listed
Details: 101.3 kPa

CC[n+]1ccn(C)c1.O=S(=O)([O-])C(F)(F)F + CCCCCO
speed of sound [m/s]
Details | 298.15 K | 308.15 K | 318.15 K | 328.15 K
x2 = 0 | 1435.8 | 1413.5 | – | 1369.8
x2 = 0.0507 | 1431.8 | 1409.5 | – | –
x2 = 0.108 | 1423.1 | 1400.8 | 1378.7 | 1357.1
x2 = 0.1716 | – | 1387.5 | 1365.4 | –
x2 = 0.2365 | 1395.2 | – | 1350.1 | 1328.1
x2 = 0.3297 | 1373.9 | 1350.8 | 1328 | 1305.7
x2 = 0.4357 | 1348.1 | – | 1301.1 | 1278.1
x2 = 0.5702 | 1317.4 | 1292.8 | 1268.5 | 1244.5
x2 = 0.5941 | 1312 | 1287.2 | 1262.7 | 1238.5
x2 = 0.7208 | 1287.9 | 1261.6 | – | –
x2 = 0.8085 | – | 1249.1 | 1221.4 | 1194
x2 = 0.8515 | 1273.4 | 1244.7 | 1216.1 | 1187.7
x2 = 0.8998 | 1271.4 | 1241.4 | 1211.5 | 1181.9
x2 = 0.9479 | 1271.7 | 1240.2 | – | 1177.7

CCCCCO + CC[n+]1ccn(C)c1.O=S(=O)([O-])C(F)(F)F
x1 = 1
Details | speed of sound [m/s]
298.15 K | 1274.9
308.15 K | 1241.4
328.15 K | 1175.3
